Assay [1] is filed under the species Homo sapiens. In words: Selectivity index, ratio of Ki for human M3 muscarinic receptor to Ki for human M5 muscarinic receptor.
For assay [2], the target named is T1, Muscarinic acetylcholine receptor M2 (Homo sapiens, UniProt P08172).
T1 sequence (P08172 whole entry): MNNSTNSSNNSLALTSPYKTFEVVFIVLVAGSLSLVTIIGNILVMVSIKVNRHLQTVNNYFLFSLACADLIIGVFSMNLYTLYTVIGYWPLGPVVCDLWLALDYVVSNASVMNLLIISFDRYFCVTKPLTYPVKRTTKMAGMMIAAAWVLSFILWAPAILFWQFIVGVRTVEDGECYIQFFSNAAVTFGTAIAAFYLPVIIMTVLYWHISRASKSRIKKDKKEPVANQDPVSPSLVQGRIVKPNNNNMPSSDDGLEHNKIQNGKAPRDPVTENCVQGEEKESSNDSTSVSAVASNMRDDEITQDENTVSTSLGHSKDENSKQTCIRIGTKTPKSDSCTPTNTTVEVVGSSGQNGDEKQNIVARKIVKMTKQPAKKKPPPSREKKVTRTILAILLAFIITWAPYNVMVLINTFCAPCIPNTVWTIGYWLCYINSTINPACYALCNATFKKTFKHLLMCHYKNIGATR
As to the kind of experiment: Displacement of [3H]NMS from human M2 muscarinic receptor expressed in CHO-K1 cells. The format is cell-based. For orientation: Displacement assays read how much labelled ligand stays bound in the presence of the test substance.

The species entered for assay [3] is Homo sapiens. As to the kind of experiment: Selectivity index, ratio of Ki for human M4 muscarinic receptor to Ki for human M5 muscarinic receptor.
Assay [4] deals with T2, Muscarinic acetylcholine receptor M5 (Homo sapiens, UniProt P08912).
T2 sequence (P08912 whole entry): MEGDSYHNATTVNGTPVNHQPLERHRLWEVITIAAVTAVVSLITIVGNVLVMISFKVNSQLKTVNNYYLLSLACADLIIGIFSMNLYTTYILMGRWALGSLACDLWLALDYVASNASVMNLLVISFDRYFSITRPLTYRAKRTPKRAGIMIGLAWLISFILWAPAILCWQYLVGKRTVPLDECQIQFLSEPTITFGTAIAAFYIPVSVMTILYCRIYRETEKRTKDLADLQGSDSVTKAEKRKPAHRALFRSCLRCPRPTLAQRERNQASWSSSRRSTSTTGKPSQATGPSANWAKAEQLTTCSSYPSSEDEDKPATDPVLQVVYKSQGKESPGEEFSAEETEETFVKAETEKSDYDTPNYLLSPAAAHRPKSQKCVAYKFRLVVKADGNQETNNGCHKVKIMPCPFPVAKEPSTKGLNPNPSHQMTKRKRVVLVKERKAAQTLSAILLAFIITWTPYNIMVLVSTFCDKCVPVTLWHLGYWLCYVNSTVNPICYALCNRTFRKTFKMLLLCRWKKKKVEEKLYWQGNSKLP
In words: Displacement of [3H]NMS from human M5 muscarinic receptor expressed in CHO-K1 cells. The class given is cell-based.

Assay [5] addresses T3, Muscarinic acetylcholine receptor M3 (Homo sapiens, UniProt P20309). In words: Displacement of [3H]NMS from human M3 muscarinic receptor expressed in CHO-K1 cells. The class given is cell-based.
The species named for assay [6] is Homo sapiens. In words: Selectivity index, ratio of Ki for human M1 muscarinic receptor to Ki for human M5 muscarinic receptor.
Assay [7] deals with T4, Muscarinic acetylcholine receptor M1 (Homo sapiens, UniProt P11229).
T4 sequence (P11229 whole entry): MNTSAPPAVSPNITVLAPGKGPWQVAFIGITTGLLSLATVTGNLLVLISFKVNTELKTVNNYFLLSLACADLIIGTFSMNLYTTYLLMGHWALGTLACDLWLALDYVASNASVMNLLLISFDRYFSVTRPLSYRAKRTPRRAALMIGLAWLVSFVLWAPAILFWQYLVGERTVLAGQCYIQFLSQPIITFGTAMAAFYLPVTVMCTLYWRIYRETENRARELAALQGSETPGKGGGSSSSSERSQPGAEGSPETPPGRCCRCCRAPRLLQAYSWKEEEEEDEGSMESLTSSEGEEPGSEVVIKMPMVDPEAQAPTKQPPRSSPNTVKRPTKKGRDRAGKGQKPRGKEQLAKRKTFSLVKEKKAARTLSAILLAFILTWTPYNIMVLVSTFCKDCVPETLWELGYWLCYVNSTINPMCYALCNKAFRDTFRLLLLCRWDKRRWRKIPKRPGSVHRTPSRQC
In words: biochemical. The format is cell-based, CHO-K1.

Assay [8] concerns the target T5, Muscarinic acetylcholine receptor M4 (Homo sapiens, UniProt P08173).
T5 sequence (P08173 whole entry): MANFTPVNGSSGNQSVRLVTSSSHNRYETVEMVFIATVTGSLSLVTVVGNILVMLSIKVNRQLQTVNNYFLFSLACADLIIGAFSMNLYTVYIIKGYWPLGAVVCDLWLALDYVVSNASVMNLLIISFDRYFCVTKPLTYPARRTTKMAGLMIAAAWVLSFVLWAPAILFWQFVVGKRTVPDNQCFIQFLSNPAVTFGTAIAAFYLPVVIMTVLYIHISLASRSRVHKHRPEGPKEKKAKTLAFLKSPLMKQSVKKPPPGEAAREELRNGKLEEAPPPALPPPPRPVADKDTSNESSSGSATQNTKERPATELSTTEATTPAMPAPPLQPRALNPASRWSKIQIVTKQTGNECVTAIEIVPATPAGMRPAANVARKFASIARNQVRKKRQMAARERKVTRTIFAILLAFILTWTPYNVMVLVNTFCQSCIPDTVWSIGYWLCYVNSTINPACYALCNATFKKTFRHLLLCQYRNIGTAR
As to the kind of experiment: Displacement of [3H]NMS from human M4 muscarinic receptor expressed in CHO-K1 cells. The class given is cell-based.

Assay [9] has as its target T6, Muscarinic acetylcholine receptor M5 (Rattus norvegicus) (UniProt P08911).
T6 sequence (whole entry): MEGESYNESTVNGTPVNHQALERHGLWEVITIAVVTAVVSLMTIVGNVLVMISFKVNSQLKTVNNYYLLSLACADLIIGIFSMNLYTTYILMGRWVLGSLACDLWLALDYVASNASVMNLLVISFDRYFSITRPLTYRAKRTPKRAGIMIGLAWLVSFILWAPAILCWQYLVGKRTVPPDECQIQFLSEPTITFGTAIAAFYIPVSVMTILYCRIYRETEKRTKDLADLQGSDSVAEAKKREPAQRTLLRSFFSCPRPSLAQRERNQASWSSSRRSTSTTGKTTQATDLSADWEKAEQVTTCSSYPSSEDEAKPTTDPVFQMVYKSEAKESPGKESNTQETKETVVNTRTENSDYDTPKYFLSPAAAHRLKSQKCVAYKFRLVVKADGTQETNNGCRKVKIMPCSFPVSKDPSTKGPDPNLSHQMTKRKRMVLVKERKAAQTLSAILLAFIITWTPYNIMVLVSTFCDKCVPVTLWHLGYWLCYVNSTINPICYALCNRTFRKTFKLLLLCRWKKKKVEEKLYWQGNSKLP
As to the kind of experiment: Orthosteric antagonist activity at M5 muscarinic receptor in rat striatal slices assessed as inhibition of 10 uM oxotremorine-evoked [3H]DA release.

The target in assay [10] is T6, Muscarinic acetylcholine receptor M5 (Rattus norvegicus). Conditions: at 1 µM.
Assay [11] deals with T1, Muscarinic acetylcholine receptor M2.
Assay [12] has as its target T3, Muscarinic acetylcholine receptor M3. As to the kind of experiment: Binding affinity to human M3 muscarinic receptor.
The target in assay [13] is T5, Muscarinic acetylcholine receptor M4. In words: Binding affinity to human M4 muscarinic receptor.

24 compounds from ChEMBL document CHEMBL2311283, “Structural modifications to tetrahydropyridine-3-carboxylate esters en route to the discovery of M5-preferring muscarinic receptor orthosteric antagonists” (J Med Chem, 2013) can be followed below.

T3 sequence (P20309 whole entry): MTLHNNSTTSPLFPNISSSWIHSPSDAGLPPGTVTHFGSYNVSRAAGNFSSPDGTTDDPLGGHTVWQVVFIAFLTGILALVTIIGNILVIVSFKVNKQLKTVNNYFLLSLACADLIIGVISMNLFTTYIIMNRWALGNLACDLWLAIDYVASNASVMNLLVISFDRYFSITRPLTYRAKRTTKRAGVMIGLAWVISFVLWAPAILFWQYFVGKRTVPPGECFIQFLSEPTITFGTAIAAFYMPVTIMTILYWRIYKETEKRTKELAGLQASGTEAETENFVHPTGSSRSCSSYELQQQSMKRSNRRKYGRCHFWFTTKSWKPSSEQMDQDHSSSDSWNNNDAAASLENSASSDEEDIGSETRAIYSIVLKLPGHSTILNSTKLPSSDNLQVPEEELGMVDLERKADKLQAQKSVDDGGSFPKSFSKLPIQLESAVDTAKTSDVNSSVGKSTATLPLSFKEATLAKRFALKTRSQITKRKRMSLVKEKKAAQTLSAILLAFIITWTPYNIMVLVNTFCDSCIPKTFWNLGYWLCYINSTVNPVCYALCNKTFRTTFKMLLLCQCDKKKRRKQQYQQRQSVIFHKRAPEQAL

As for `CCN1CCC(c2ccccc2)=C(C(=O)OCCc2ccc3c(c2)CCO3)C1`, the Ratio Ki in the assay filed under Homo sapiens [1] turned out to be 135; in the assay listed under Homo sapiens [3], 46; in the assay listed under Homo sapiens [6], 6. Besides, the inhibition constant (Ki) is greater than 100000 nM in assay [2]; 230 nM in assay [4]; 31100 nM in assay [5]; 1390 nM in [7]; 10500 nM in assay [8].
For `CN1CCC(c2ccccc2)=C(C(=O)OCCCc2ccc3c(c2)CCO3)C1`, the Ki was 630 nM in assay [4] and 920 nM in [7]. In addition, the Ratio Ki in the assay listed under Homo sapiens [6] was determined as 1.5.
As for `CN1CCC(c2ccccc2)=C(C(=O)OCCc2cccc3ccccc23)C1`, the Ratio Ki in the assay listed under Homo sapiens [1] was greater than 20; in the assay filed under Homo sapiens [3] it was greater than 20; in the assay listed under Homo sapiens [6], 4.8. Moreover, the Ki is greater than 100000 nM in assay [2]; 5040 nM in assay [4]; greater than 100000 nM in assay [5]; 24400 nM in assay [7]; greater than 100000 nM in assay [8].
Turning to `CN1[C@@H]2C[C@@H](OC(=O)[C@H](CO)c3ccccc3)C[C@H]1[C@@H]1O[C@@H]12`, the inhibition entry in assay [9] was “Dose-dependent effect”. This compound returned an Imax in assay [10] of 100%.
Turning to `COc1ccc(OCCOC(=O)C2=C(c3ccccc3)CCN(C)C2)cc1`, the inhibition constant (Ki) turned out to be 3070 nM in assay [4] and 6190 nM in assay [7]. Besides, the Ratio Ki in the assay listed under Homo sapiens [6] worked out at 2.
For `COc1ccc(CCCCOC(=O)C2=C(c3ccccc3)CCN(C)C2)cc1`, the Ki worked out at 1160 nM in assay [4] and 5400 nM in assay [7]. Moreover, the Ratio Ki in the assay filed under Homo sapiens [6] was found to be 4.7.
Turning to `COc1ccc(CCOC(=O)C2=C(c3ccccc3)CCN(C)C2)cc1`, the values for the Ki in [4] and in assay [7] were 30 nM and 20 nM, respectively. Besides, the Ratio Ki in the assay listed under Homo sapiens [6] came to 0.7.
For the compound `CCN(CC)CC1CCCCN1CC(=O)N1c2ccccc2C(=O)Nc2cccnc21` (stereo unspecified) [OTENZEPAD], the Ki worked out at 81 nM in assay [11], 2090 nM in assay [12] and 407 nM in assay [13].
With `CCN1CCC(c2ccccc2)=C(C(=O)OCCc2ccsc2)C1`, the figures for the inhibitory constant (Ki) in [4] and in assay [7] were 190 nM and 140 nM, respectively. Further, the Ratio Ki in the assay filed under Homo sapiens [6] is 0.7.
For `Cc1cccc(CCOC(=O)C2=C(c3ccccc3)CCN(C)C2)c1`, the values for the Ki in assay [4] and in assay [7] were 280 nM and 880 nM, respectively. Also, the Ratio Ki in the assay listed under Homo sapiens [6] came out at 3.1.
For `CSc1ccc(CCOC(=O)C2=C(c3ccccc3)CCN(C)C2)cc1` the same measures were 190 nM, 340 nM and 1.8.
Regarding `CN1CCC(c2ccccc2)=C(C(=O)OCCc2ccc3c(c2)CCO3)C1`, the Ratio Ki in the assay listed under Homo sapiens [1] turned out to be 47; in the assay filed under Homo sapiens [3] it was 32; in the assay filed under Homo sapiens [6], 4.8. Further, the inhibition constant (Ki) in assay [2] was found to be 1170 nM; in assay [4], 60 nM; in assay [5], 2840 nM; in assay [7] it was 290 nM; in assay [8] it was 1890 nM.
In the case of `CN1CCC(c2ccccc2)=C(C(=O)OCCc2ccc(S(C)(=O)=O)cc2)C1`, the Ki came out at 110 nM in assay [4] and 510 nM in [7]. Moreover, the Ratio Ki in the assay listed under Homo sapiens [6] amounted to 4.6.
With `CN1CCC(c2ccccc2F)=C(C(=O)OCCc2ccc3c(c2)CCO3)C1`, the Ratio Ki in the assay filed under Homo sapiens [1] came out at 6.6; in the assay filed under Homo sapiens [3], 7.8; in the assay filed under Homo sapiens [6], 7. The inhibition constant (Ki) worked out at 540 nM in assay [2]; 740 nM in [4]; 4890 nM in assay [5]; 5270 nM in [7]; 5740 nM in [8].
On to `CCN1CCC(c2ccc(F)cc2)=C(C(=O)OCCc2ccc3c(c2)CCO3)C1`, for which the values for the Ki in assay [4] and in [7] were 2350 nM and 7900 nM, respectively. In addition, in the assay listed under Homo sapiens [6], the Ratio Ki is 3.4.
Turning to `CCN1CCC(c2ccccc2)=C(C(=O)OCCCc2ccc(OC)cc2)C1`, the inhibition constant (Ki) in assay [2] amounted to 2030 nM; in assay [5] it was 4070 nM; in assay [8], 11500 nM.
Turning to `CCN1CCC(c2ccccc2)=C(C(=O)OCCc2ccc([N+](=O)[O-])cc2)C1`, the Ki was 440 nM in assay [4] and 810 nM in [7]. Besides, the Ratio Ki in the assay listed under Homo sapiens [6] stood at 1.8.
On to `COc1ccc(CCOC(=O)C2=C(c3ccccc3)CCN(C)C2)cc1C`, for which the Ki in assay [4] was 740 nM; in assay [7], 2700 nM. Further, the Ratio Ki in the assay listed under Homo sapiens [6] was determined as 3.6.
Consider `CCN1CCC(c2ccccc2)=C(C(=O)OCCc2cccc(OC)c2)C1`, for which the results for the Ki in assay [4] and in assay [7] were 150 nM and 470 nM, respectively. The Ratio Ki in the assay filed under Homo sapiens [6] is 3.1.
Regarding `CCN1CCC(c2ccccc2)=C(C(=O)OCc2ccc3c(c2)OCO3)C1`, the figures for the Ki in [4] and in assay [7] were 120 nM and 60 nM, respectively. The Ratio Ki in the assay listed under Homo sapiens [6] was found to be 0.5.
As to `CCN1CCC(c2ccccc2)=C(C(=O)OCCc2ccc3c(c2)OCO3)C1`, the inhibition constant (Ki) came to 280 nM in assay [4] and 200 nM in assay [7]. Also, the Ratio Ki in the assay filed under Homo sapiens [6] amounted to 0.7.
For `CCN1CCC(c2ccccc2)=C(C(=O)OCCc2ccc(OC)c(F)c2)C1` the same measures were 2460 nM, 11700 nM and 4.8.
Turning to `COc1ccc(CCOC(=O)C2=C(c3cccc(F)c3)CCN(C)C2)cc1OC`, the Ratio Ki was greater than 30 in the assay filed under Homo sapiens [1], greater than 30 in the assay listed under Homo sapiens [3] and 8.1 in the assay filed under Homo sapiens [6]. Further, the inhibitory constant (Ki) is greater than 100000 nM in assay [2]; 3340 nM in [4]; greater than 100000 nM in assay [5]; 27000 nM in assay [7]; greater than 100000 nM in assay [8].
In the case of `CN1CCC(c2ccccc2)=C(C(=O)OCCc2cccc(F)c2)C1`, the inhibitory constant (Ki) came out at 80 nM in assay [4] and 330 nM in assay [7]. The Ratio Ki in the assay listed under Homo sapiens [6] is 4.1.

One may read the Ki as the dissociation constant of the complex between target and ligand, obtained from inhibition or displacement.
